Assay results from PMC6001238, “Iterative Chemical Engineering of Vancomycin Leads to Novel Vancomycin Analogs With a High in Vitro Therapeutic Index” (Frontiers in Microbiology, 2018).
≈ marks a conversion by molar mass, not a printed value.

Experiments:
E. faecalis VSE 1 = assay: MIC, broth microdilution, vancomycin-sensitive E. faecalis (VSE 1); format: cell-based, Enterococcus faecalis; conditions: for MIC: Enterococcus faecalis VSE 1 (vancomycin-sensitive), read-out: MIC; for MIC-fold improvement vs. vancomycin: VSE 1, ratio of MIC of vancomycin and MIC of analogue
How it was run: (§1)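 CLSI broth microdilution; water and uninoculated-broth controls; one arm supplemented with vancomycin, final 10 μM, given with analogue or control antibiotic.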

E. faecalis VRE 6 = assay: MIC, broth microdilution, vancomycin-resistant E. faecalis VRE 6 (VanA); format: cell-based, Enterococcus faecalis; conditions: for MIC: Enterococcus faecalis VRE 6 (vancomycin-resistant), read-out: MIC; for MIC-fold improvement vs. vancomycin: VRE 6, ratio of MIC of vancomycin and MIC of analogue
How it was run: as §1

E. faecalis VRE 53 = assay: MIC, broth microdilution, vancomycin-resistant E. faecalis VRE 53 (VanA); format: cell-based, Enterococcus faecalis; conditions: for MIC: Enterococcus faecalis VRE 53 (vancomycin-resistant), read-out: MIC; for MIC-fold improvement vs. vancomycin: VRE 53, ratio of MIC of vancomycin and MIC of analogue
How it was run: as §1

E. faecalis VRE 29 = assay: MIC, broth microdilution, vancomycin-resistant E. faecalis VRE 29 (VanA); format: cell-based, Enterococcus faecalis; conditions: for MIC: Enterococcus faecalis VRE 29 (vancomycin-resistant), read-out: MIC; for MIC-fold improvement vs. vancomycin: VRE 29, ratio of MIC of vancomycin and MIC of analogue
How it was run: as §1

E. faecalis VRE 37 = assay: MIC, broth microdilution, vancomycin-resistant E. faecalis VRE 37 (VanA); format: cell-based, Enterococcus faecalis; conditions: for MIC: Enterococcus faecalis VRE 37 (vancomycin-resistant), read-out: MIC; for MIC-fold improvement vs. vancomycin: VRE 37, ratio of MIC of vancomycin and MIC of analogue
How it was run: as §1

[1] = system: Murine leukemia (L1210) cells; assay: Cytostatic activity, L1210 cell proliferation; format: cell-based; conditions: mean ± SD of three experiments; highest concentration tested 250 µM; 2 days; read-out: Toxicity (IC50) L1210
How it was run: (§2)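 Test compounds, serially diluted, received an equal volume of cell suspension at 300,000–500,000 cells/mL. After 37°C incubation (2 days for L1210, 3 for CEM, 4 for HeLa), cells were enumerated by Coulter counting and 50%-inhibitory concentrations calculated per cell type.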

[2] = system: human T-lymphocyte (CEM) cells; assay: Cytostatic activity, CEM cell proliferation; format: cell-based; conditions: mean ± SD of three experiments; highest concentration tested 250 µM; 3 days; read-out: Toxicity (IC50) CEM
How it was run: as §2

[3] = system: human cervix carcinoma (HeLa) cells; assay: Cytostatic activity, HeLa cell proliferation; format: cell-based; conditions: mean ± SD of three experiments; highest concentration tested 250 µM; 4 days; read-out: Toxicity (IC50) HeLa
How it was run: as §2

[4] = system: L1210, CEM and HeLa cell lines; assay: Cytostatic activity, average or summary over L1210, CEM and HeLa; format: cell-based; conditions: average of L1210, CEM and HeLa; read-out: Toxicity (IC50) Average
How it was run: as §2

[5] = system: S. aureus VSSA (ATCC 6538); assay: MIC, broth microdilution, vancomycin-sensitive S. aureus (VSSA/MSSA, ATCC 6538); format: cell-based, Staphylococcus aureus; conditions: for MIC: Staphylococcus aureus VSSA, read-out: MIC; for MIC-fold improvement vs. vancomycin: VSSA, ratio of MIC of vancomycin and MIC of analogue
How it was run: as §1

S. aureus VISA/HIP5827 = assay: MIC, broth microdilution, vancomycin-intermediate S. aureus VISA HIP5827; format: cell-based, Staphylococcus aureus; conditions: for MIC: Staphylococcus aureus VISA/HIP5827, read-out: MIC; for MIC-fold improvement vs. vancomycin: VISA/HIP5827, ratio of MIC of vancomycin and MIC of analogue
How it was run: as §1

S. aureus VRSA = assay: MIC, broth microdilution, vancomycin-resistant S. aureus (VRSA); format: cell-based, Staphylococcus aureus; conditions: for MIC: Staphylococcus aureus VRSA, read-out: MIC; for MIC-fold improvement vs. vancomycin: VRSA, ratio of MIC of vancomycin and MIC of analogue
How it was run: as §1

MRSA KS2 = assay: MIC, broth microdilution, MRSA KS2; format: cell-based, Staphylococcus aureus; conditions: for MIC-fold improvement vs. vancomycin: MRSA KS2, ratio of MIC of vancomycin and MIC of analogue; for MIC: Staphylococcus aureus MRSA KS2, read-out: MIC
How it was run: as §1

MRSA KS6 = assay: MIC, broth microdilution, MRSA KS6; format: cell-based, Staphylococcus aureus; conditions: for MIC-fold improvement vs. vancomycin: MRSA KS6, ratio of MIC of vancomycin and MIC of analogue; for MIC: Staphylococcus aureus MRSA KS6, read-out: MIC
How it was run: as §1

MRSA KS89 = assay: MIC, broth microdilution, MRSA KS89; format: cell-based, Staphylococcus aureus; conditions: for MIC-fold improvement vs. vancomycin: MRSA KS8, ratio of MIC of vancomycin and MIC of analogue; for MIC: Staphylococcus aureus MRSA KS8, read-out: MIC
How it was run: as §1

MRSA KS1 = assay: MIC, broth microdilution, MRSA KS1; format: cell-based, Staphylococcus aureus; conditions: for MIC-fold improvement vs. vancomycin: MRSA KS1, ratio of MIC of vancomycin and MIC of analogue; for MIC: Staphylococcus aureus MRSA KS1, read-out: MIC
How it was run: as §1

MIC (E. faecalis VSE 1) [µM]	MIC-fold improvement vs. vancomycin (E. faecalis VSE 1)	MIC (E. faecalis VRE 6) [µM]	MIC-fold improvement vs. vancomycin (E. faecalis VRE 6)	MIC (E. faecalis VRE 53) [µM]	MIC-fold improvement vs. vancomycin (E. faecalis VRE 53)	MIC (E. faecalis VRE 29) [µM]	MIC-fold improvement vs. vancomycin (E. faecalis VRE 29)	MIC (E. faecalis VRE 37) [µM]	MIC [5] [µM]	MIC-fold improvement vs. vancomycin [5]	MIC (S. aureus VISA/HIP5827) [µM]	MIC-fold improvement vs. vancomycin (S. aureus VISA/HIP5827)	MIC (S. aureus VRSA) [µM]	MIC-fold improvement vs. vancomycin (S. aureus VRSA)	MIC-fold improvement vs. vancomycin (MRSA KS2)	SMILES	IC50 [1] [µM]	IC50 [2] [µM]	IC50 [3] [µM]	IC50 [4] [µM]	further results
0.39 (≈ 0.708 µg/mL)	4	3.13 (≈ 5.68 µg/mL)	64	25 (≈ 45.4 µg/mL)	16	6.25 (≈ 11.3 µg/mL)	64	12.5 (≈ 22.7 µg/mL)	0.39 (≈ 0.708 µg/mL)	2	0.78 (≈ 1.42 µg/mL)	8	0.78 (≈ 1.42 µg/mL)	128	2	CNC(CC(C)C)C(=O)NC1C(=O)NC(CC(N)=O)C(=O)NC2C(=O)NC3C(=O)NC(C(=O)NC(C(=O)NCCCNC(=O)c4ccc5cc(NS(=O)(=O)c6ccccc6)ccc5c4)c4cc(O)cc(O)c4-c4cc3ccc4O)C(O)c3ccc(c(Cl)c3)Oc3cc2cc(c3OC2OC(CO)C(O)C(O)C2OC2CC(C)(N)C(O)C(C)O2)Oc2ccc(cc2Cl)C1O (centres unmarked) [Vanc-63]	> 250	≥ 250	69 ± 74	190	MIC (MRSA KS2): 0.39 µM (≈ 0.708 µg/mL); MIC-fold improvement vs. vancomycin (MRSA KS6): 2; MIC (MRSA KS6): 0.39 µM (≈ 0.708 µg/mL); MIC-fold improvement vs. vancomycin (MRSA KS89): 2; MIC (MRSA KS89): 0.39 µM (≈ 0.708 µg/mL); MIC-fold improvement vs. vancomycin (MRSA KS1): 2; MIC (MRSA KS1): 0.39 µM (≈ 0.708 µg/mL)
≤0.05	≥32	0.78 (≈ 1.32 µg/mL)	256	3.13 (≈ 5.3 µg/mL)	128	0.78 (≈ 1.32 µg/mL)	512	3.13 (≈ 5.3 µg/mL)	0.10 (≈ 0.169 µg/mL)	8	0.39 (≈ 0.66 µg/mL)	16	0.78 (≈ 1.32 µg/mL)	128	8	CNC(CC(C)C)C(=O)NC1C(=O)NC(CC(N)=O)C(=O)NC2C(=O)NC3C(=O)NC(C(=O)NC(C(=O)NCC(=O)Nc4ccc(-c5ccc(Cl)cc5)cc4)c4cc(O)cc(O)c4-c4cc3ccc4O)C(O)c3ccc(c(Cl)c3)Oc3cc2cc(c3OC2OC(CO)C(O)C(O)C2OC2CC(C)(N)C(O)C(C)O2)Oc2ccc(cc2Cl)C1O (centres unmarked) [Vanc-84]	1.5 ± 0.1	1.6 ± 0.9	13	5	MIC-fold improvement vs. vancomycin (E. faecalis VRE 37): 128; MIC (MRSA KS2): 0.10 µM (≈ 0.169 µg/mL); MIC-fold improvement vs. vancomycin (MRSA KS6): 4; MIC (MRSA KS6): 0.20 µM (≈ 0.338 µg/mL); MIC-fold improvement vs. vancomycin (MRSA KS89): 4; MIC (MRSA KS89): 0.20 µM (≈ 0.338 µg/mL); MIC-fold improvement vs. vancomycin (MRSA KS1): 8; MIC (MRSA KS1): 0.10 µM (≈ 0.169 µg/mL)
0.78 (≈ 1.28 µg/mL)	2	12.5 (≈ 20.4 µg/mL)	16	12.5 (≈ 20.4 µg/mL)	32	25 (≈ 40.9 µg/mL)	16	25 (≈ 40.9 µg/mL)	0.39 (≈ 0.638 µg/mL)	2	0.78 (≈ 1.28 µg/mL)	8	0.39 (≈ 0.638 µg/mL)	256	2	CN[C@H](CC(C)C)C(=O)N[C@H]1C(=O)N[C@@H](CC(N)=O)C(=O)N[C@H]2C(=O)N[C@H]3C(=O)N[C@H](C(=O)N[C@H](C(=O)NCCNC(=O)/C=C/c4ccc(C)cc4)c4cc(O)cc(O)c4-c4cc3ccc4O)[C@H](O)c3ccc(c(Cl)c3)Oc3cc2cc(c3O[C@@H]2O[C@H](CO)[C@@H](O)[C@H](O)[C@H]2O[C@H]2C[C@](C)(N)[C@H](O)[C@H](C)O2)Oc2ccc(cc2Cl)[C@H]1O [Vanc-53]	176 ± 18	152 ± 43	176 ± 103	168	MIC-fold improvement vs. vancomycin (E. faecalis VRE 37): 16; MIC (MRSA KS2): 0.39 µM (≈ 0.638 µg/mL); MIC-fold improvement vs. vancomycin (MRSA KS6): 2; MIC (MRSA KS6): 0.39 µM (≈ 0.638 µg/mL); MIC-fold improvement vs. vancomycin (MRSA KS89): 2; MIC (MRSA KS89): 0.39 µM (≈ 0.638 µg/mL); MIC-fold improvement vs. vancomycin (MRSA KS1): 2; MIC (MRSA KS1): 0.39 µM (≈ 0.638 µg/mL)
